Our source for the IC50 and melting point values is US20050004167A1, “Branched chain amino acid-dependent aminotransferase inhibitors and their use in the treatment of neurodegenerative diseases” (WARNER-LAMBERT COMPANY LLC, priority 2001, published 2005).

“And” between values parts separate entries of the source, which are not always exact repeats. Equal values may be shown once. A value given as a limit tells only on which side of the number the result lay.

One data set concerns the target T1, rat BCAT cytosolic form (Rattus norvegicus, UniProt P54690).
T1 construct: made in house; host or cells: E. coli BL21(DE3)
T1 sequence (P54690 1-411): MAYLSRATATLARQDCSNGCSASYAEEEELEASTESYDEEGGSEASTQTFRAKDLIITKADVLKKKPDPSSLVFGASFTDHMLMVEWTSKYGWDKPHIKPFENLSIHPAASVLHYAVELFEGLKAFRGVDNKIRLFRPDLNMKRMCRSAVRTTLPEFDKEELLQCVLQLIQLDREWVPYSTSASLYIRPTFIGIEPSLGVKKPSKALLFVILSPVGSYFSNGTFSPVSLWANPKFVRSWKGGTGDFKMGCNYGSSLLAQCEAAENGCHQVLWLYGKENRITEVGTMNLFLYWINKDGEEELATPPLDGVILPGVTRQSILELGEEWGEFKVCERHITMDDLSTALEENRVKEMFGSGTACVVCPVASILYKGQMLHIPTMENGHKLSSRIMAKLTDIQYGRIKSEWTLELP
Put plainly: In vitro coupled enzyme assay (glutamate dehydrogenase, NADH formation), rat BCATc. Type of data set: biochemical. Conditions: recombinant rat BCATc, 37° C., 25 mM phosphate buffer pH 7.8; several values in a cell = repeat determinations; read-out: RrBCATc. The essentials:
(§1)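 At 37 °C in 25 mM phosphate pH 7.8 with 2 mM DTT, 1.25 μg His-tag-purified E. coli-expressed BCAT transaminated 750 μM L-leucine with 500 μM α-ketoglutarate and 10 μM PLP. Glutamate was coupled via glutamate dehydrogenase (1 mM NAD+, 4 mM ADP) to NADH formation at 340 nm. Compounds were added in DMSO up to 5% v/v.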

Data set [1] concerns the target T2, human Branched Chain Amino Acid Aminotransferase cytosolic form (hBCATc) (Homo sapiens, UniProt P54687).
T2 construct: made in house; host or cells: E. coli BL21(DE3)
T2 sequence (P54687 1-386): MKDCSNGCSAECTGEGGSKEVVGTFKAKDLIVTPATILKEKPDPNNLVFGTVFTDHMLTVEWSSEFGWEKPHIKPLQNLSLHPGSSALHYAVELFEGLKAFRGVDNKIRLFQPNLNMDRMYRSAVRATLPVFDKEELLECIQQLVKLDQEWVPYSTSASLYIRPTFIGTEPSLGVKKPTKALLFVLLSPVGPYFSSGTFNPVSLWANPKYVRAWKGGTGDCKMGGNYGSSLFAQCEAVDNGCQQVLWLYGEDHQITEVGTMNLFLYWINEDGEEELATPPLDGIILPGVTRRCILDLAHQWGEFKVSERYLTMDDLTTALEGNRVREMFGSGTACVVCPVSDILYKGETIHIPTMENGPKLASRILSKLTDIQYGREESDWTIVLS
Kind of data set: In vitro coupled enzyme assay (glutamate dehydrogenase, NADH formation), human BCATc. It is filed as biochemical. The settings on record: recombinant human BCATc, 37° C., 25 mM phosphate buffer pH 7.8; several values in a cell = repeat determinations; read-out: RhBCATc. The procedure, abridged: as §1

One may read the melting point as the temperature of the solid-liquid transition. Regarding `O=C(NNS(=O)(=O)c1ccccc1)c1ccc2[nH]c3c(c2c1)CCCC3` [Example 2, 2,3,4,9-Tetrahydro-1H-carbazole-6-carboxylic acid 2-(phenylsulfonyl)hydrazide], the melting point is above 250 °C. Also, the IC50 at rat BCAT cytosolic form was 0.13 µM. Moreover, the IC50 in data set [1] was determined as 2.6 µM.

Regarding `COc1cccc2cc(C(=O)NNS(=O)(=O)c3ccccc3)oc12` [Example 5, 7-Methoxy-2-benzofurancarboxylic acid 2-(phenylsulfonyl)hydrazide], the melting point lay within 164 to 165 °C. Also, the IC50 at rat BCAT cytosolic form is 0.86 µM and 0.46 µM and 0.53 µM. Further, in data set [1], the IC50 is 5.76 µM and 3 µM.

In turn, `O=C(NNS(=O)(=O)c1cccc(Cl)c1)c1ccc2oc3ccccc3c2c1` [Example 16, 2-Dibenofurancarboxylic acid 2-[(3-chlorophenyl)sulfonyl]hydrazide] had a melting point of 208 to 209 °C. Also, at rat BCAT cytosolic form, the IC50 is 0.39 µM and 0.2 µM. Also, in data set [1], the IC50 is 3 µM and 3.1 µM.

Consider `O=C(NNS(=O)(=O)c1ccccc1Cl)c1ccc2oc3ccccc3c2c1` [Example 17, 2-Dibenzofurancarboxylic acid 2-[(2-chlorophenyl)sulfonyl]hydrazide], for which the melting point lay within 235 to 236 °C. Further, the IC50 at rat BCAT cytosolic form is 1.1 µM and 0.54 µM. For the same compound, the IC50 in data set [1] came out at 11.4 µM.

On to `O=C(NNS(=O)(=O)c1cc(Cl)cc(Cl)c1)c1ccc2oc3ccccc3c2c1` [Example 18, Dibenzofuran-2-carboxylic acid 2-(3,5-dichlorophenylsulfonyl)hydrazide], for which the melting point lay in the range of 231 to 233 °C. In addition, the IC50 at rat BCAT cytosolic form was 0.53 µM and 0.4 µM. In addition, the IC50 in data set [1] amounted to 7.9 µM.

`Cc1c(Cl)cccc1S(=O)(=O)NNC(=O)c1ccc2oc3ccccc3c2c1` [Example 19, Dibenzofuran-2-carboxylic acid 2-(3-chloro-2-methyl-phenylsulfonyl)hydrazide] showed a melting point of 192 to 194 °C. On rat BCAT cytosolic form, the IC50 came to 0.22 µM. Moreover, the IC50 in data set [1] is 6.7 µM.

On to `O=C(NNS(=O)(=O)c1ccc(F)cc1)c1cc2cc(Cl)ccc2o1` [Example 22, 2-Benzofurancarboxylic acid, 5-chloro-2-[(4-fluorophenyl)]sulfonyl hydrazide], for which the melting point was in the range of 229.4 to 230.5 °C. Also, at rat BCAT cytosolic form, the IC50 stood at 4.1 µM. The IC50 in data set [1] turned out to be 24.6 µM.

The compound `COc1cccc2cc(C(=O)NNS(=O)(=O)c3ccc(F)cc3)oc12` [Example 23, 2-Benzofurancarboxylic acid, 7-methoxy-, 2-[(4-fluoro-phenyl)sulfonyl]hydrazide] came in with a melting point of 182.7 to 183.3 °C. Also, the IC50 at rat BCAT cytosolic form turned out to be 5.4 µM. The IC50 in data set [1] was found to be 17.8 µM.

The compound `O=C(NNS(=O)(=O)c1ccc(F)cc1)c1ccc2oc3ccccc3c2c1` [Example 24, 2-Dibenzofurancarboxylic acid 2-[(4-fluorophenyl)sulfonyl]hydrazide] had a melting point of 206.3 to 207 °C. Further, the IC50 at rat BCAT cytosolic form was determined as 1.2 µM. Also, the IC50 in data set [1] stood at 24 µM.

As for `O=C(NNS(=O)(=O)c1ccc(F)cc1Cl)c1ccc2oc3ccccc3c2c1` [Example 25, 2-Dibenzofurancarboxylic acid 2-[(2-chloro-4-fluorophenyl)sulfonyl]hydrazide], the melting point fell in the range of 227.5 to 227.8 °C. The IC50 at rat BCAT cytosolic form was 1.8 µM. The IC50 in data set [1] came to 21.9 µM.

On to `N#Cc1cccc(S(=O)(=O)NNC(=O)c2ccc3oc4ccccc4c3c2)c1` [Example 26, 2-Dibenzofurancarboxylic acid 2-[(3-cyanophenyl)sulfonyl]hydrazide], for which the melting point was in the range of 234 to 236 °C. Also, the IC50 on rat BCAT cytosolic form is 15.2 µM and 6.9 µM. For the same compound, in data set [1], the IC50 stood at 138 µM.

Regarding `N#Cc1cccc(S(=O)(=O)NNC(=O)c2cc3cc(Cl)ccc3o2)c1` [Example 27, 2-Benzofurancarboxylic acid, 5-chloro-, 2-[(3-cyanophenyl)sulfonyl]hydrazide], the melting point is 208.5 to 210 °C. Moreover, on rat BCAT cytosolic form, the IC50 turned out to be 45.2 µM. Also, in data set [1], the IC50 came to 171 µM.

As for `O=C(NNS(=O)(=O)c1cccc(Cl)c1)c1ccc2ccccc2c1` [Example 117, 2-Naphthalenecarboxylic acid, 2-[(3-chlorophenyl)sulfonyl]hydrazide], the IC50 on rat BCAT cytosolic form was 0.82 µM; in data set [1] it was 5.7 µM.

Take `O=C(NNS(=O)(=O)c1ccccc1Cl)c1ccc2ccccc2c1` [Example 118, 2-Naphthalenecarboxylic acid, 2-[(2-chlorophenyl)sulfonyl]hydrazide]: the IC50 on rat BCAT cytosolic form came out at 1.8 µM; in data set [1], 25 µM.

With `O=C(NNS(=O)(=O)c1cccc(F)c1)c1ccc2ccccc2c1` [Example 119, 2-Naphthalenecarboxylic acid, 2-[(3-fluorophenyl)sulfonyl]hydrazide], the IC50 on rat BCAT cytosolic form worked out at 2.2 µM; in data set [1], 12.7 µM.

Take `O=C(NNS(=O)(=O)c1cccc(Cl)c1Cl)c1ccc2ccccc2c1` [Example 120, 2-Naphthalenecarboxylic acid, 2-[(2,3-dichlorophenyl)sulfonyl]hydrazide]: the results for the IC50 (at rat BCAT cytosolic form; in data set [1]) were 2 µM and 18.1 µM, respectively.

Regarding `CCc1ccc(S(=O)(=O)NNC(=O)c2ccc3ccccc3c2)cc1` [Example 121, 2-Naphthalenecarboxylic acid, 2-[(4-ethylphenyl)sulfonyl]hydrazide], the IC50 on rat BCAT cytosolic form worked out at 11.6 µM; in data set [1], 55 µM.

For the compound `CCCCCc1ccc(S(=O)(=O)NNC(=O)c2cnc3ccccc3c2)cc1` [Example 122, 3-Quinolinecarboxylic acid, 2-[(4-pentylphenyl)sulfonyl)hydrazide], the IC50 at rat BCAT cytosolic form is 56.7 µM; in data set [1], 58 µM.

Turning to `O=C(NNS(=O)(=O)c1ccccc1C(F)(F)F)c1cnc2ccccc2c1` [Example 123, 3-Quinolinecarboxylic acid, 2-[[2-(trifluoromethyl)phenyl]sulfonyl]hydrazide], the IC50 came out at 2.2 µM at rat BCAT cytosolic form and 11.6 µM in data set [1].

In the case of `Cc1cccc(S(=O)(=O)NNC(=O)c2cnc3ccccc3c2)c1` [Example 125, 3-Quinolinecarboxylic acid, 2-[(3-methylphenyl)sulfonyl]hydrazide], the IC50 at rat BCAT cytosolic form is 2.4 µM; in data set [1], 18.4 µM.

As for `O=C(NNS(=O)(=O)c1ccccc1OC(F)(F)F)c1cnc2ccccc2c1` [Example 126, 3-Quinolinecarboxylic acid, 2-[[2-(trifluoromethoxy)phenyl]sulfonyl]hydrazide], the IC50 is 12.5 µM on rat BCAT cytosolic form and 36.2 µM in data set [1].

For the compound `O=C(NNS(=O)(=O)c1ccccc1)c1cc2ccccc2o1` [Example 146, Benzofuran-2-carboxylic acid 2-(phenylsulfonyl)hydrazide], the IC50 at rat BCAT cytosolic form was found to be 2.5 µM; in data set [1] it was 17.8 µM.

Consider `O=C(NNS(=O)(=O)c1ccccc1)c1ccc2[nH]ccc2c1` [Example 153, 1H-Indole-5-carboxylic acid 2-(phenylsulfonyl)hydrazide], for which the results for the IC50 (on rat BCAT cytosolic form; in data set [1]) were 1.9 µM and 15.3 µM, respectively.

Consider `O=C(NNS(=O)(=O)c1ccccc1)c1cnc2ccccc2c1` [Example 154, Quinoline-3-carboxylic acid 2-(phenylsulfonyl)hydrazide], for which the IC50 amounted to 3.6 µM at rat BCAT cytosolic form and 24.2 µM in data set [1].
